According to article PMC4906375, “Contribution of Amphipathicity and Hydrophobicity to the Antimicrobial Activity and Cytotoxicity of β-Hairpin Peptides” (ACS Infectious Diseases, 2016):
In brackets after ≈: the same amount, converted by molar mass. Residues, ends and D or L forms follow the SMILES beside them.

Key:
[1] = system: B. subtilis ATCC 6051; experiment: microbe, parasite or virus in culture; assay type: cell-based, Bacillus subtilis; settings: ATCC 6051
Protocol: (§1) Both antibacterial and antifungal MIC assays were performed by a broth microdilution plate based method as per CLSI guidelines for antimicrobial susceptibility testing.[53],[54] […] Full assay details are included in the Supporting Information with a full list of strains tested in Table S1.
(§2) Antibacterial assay (Minimum Inhibitory Concentration [MIC]).
(§3) MIC assay was performed by a broth microdilution plate based method as per CLSI guidelines for antimicrobial susceptibility testing of aerobic bacteria.1 Compounds were prepared at 1.28 mg/mL solution in water. The tested strains, Table S1, were cultured in Luria broth (LB) (In Vitro Technologies, USB75852), at 37 °C overnight. A sample of culture was then diluted 40Pfold in fresh Muller Hinton broth (MHB) (Bacto laboratories, 211443) and incubated at 37 °C for 1.5P2 h. The compounds were serially diluted twoPfold across the wells, with compound concentrations ranging from 0.015 µg/mL to 512 µg/mL, plated in duplicate. The resultant midPlog phase cultures were diluted to the final concentration of 1×10^6 CFU/mL, then 50 µL was added to each well of the compoundP containing 96Pwell plates (Corning 3641, NonPbinding Surface [NBS]), giving a final compound concentration range of 0.008 µg/mL to 256 µg/mL and 5x10^5 CFU/mL. All the plates were covered and incubated at 37 °C for 18 h. MICs were determined visually, being defined as the lowest concentration showing no visible growth. Resazurin was added at 0.001% final concentration to each well and incubated for 2 h before MICs were rePread for confirmation using the colour change from blue to pink to indicate wells containing viable cells. The resazurin assay was added in some wells where some form of precipitate was present in otherwise clear wells, making it difficult to ascertain which wells had visible […]
(§4) Antifungal assay (Minimum Inhibitory Concentration [MIC]). MIC assay was performed by a broth microdilution plate based method as per CLSI guidelines for antimicrobial susceptibility testing.2 Fungi strains, Table S1, were cultured for 3 days on Yeast ExtractPPeptone Dextrose (YPD) (SigmaPAldrich, Y1500) agar at 30 °C. A yeast suspension of 1x10^6 to 5x10^6 CFU/mL was prepared from five colonies. These stock suspensions were diluted with Yeast Nitrogen Base (YNB) (Becton Dickinson, 233520) broth to a final concentration of 2.5 ×10^3 CFU/mL. All samples, compounds and standards were plated in 96Pwell plates (Corning 3641, NonPbinding Surface [NBS]), by adding 10 µL of 1.28 mg/mL stock solution to each well and 90 µL of media. Then, the samples were serial diluted (1:2) in 12 concentrations across the plate. The standard antifungal ranged from 256

[2] = hemolysis (%) at 300 μg/mL, human erythrocytes, 3 h, relative to 100% hemolysis by 1% Triton X-100
[3] = Plasma protein binding, ultrafiltration; assay type: in vitro ADME; settings: 100% human plasma, read-out: PPB (%) (converted)
Protocol: Plasma protein binding was performed using an ultrafiltration method.[58]
Plasma protein binding assay
Plasma protein binding was performed using an Ultrafiltration method.13 Fresh frozen human plasma was pooled from O Negative (Product number 1274512) blood from the R & D division of the Australian Red Cross Blood Services (Brisbane). Stock solutions (20 mg/mL) of the test compounds were prepared in H2O. Test compounds (40 µg/mL) were incubated in 100 % human plasma at 37 °C for 30 min (1 mL volume). For unfiltered samples, an aliquot (50 µL) was removed, diluted with PBS (50 µL) and quenched with icePcold precipitating solution comprising 0.5 µM carbutamide MS internal standard in acetonitrile : methanol : formic acid (1: 1 : 0.001). Samples were incubated at 4 °C for 30 min then centrifuged at 14000 × g for 8 min, with the clear supernatant transferred to a vial for LC/MS/MS analysis.
For filtered samples, the plasma sample (250 µL) was filtered using Amicon UltraP0.5 Centrifugal Filter Devices 30K NMWL at 14000 × g for 7 min and then an aliquot (50 µL) was processed as described for unfiltered samples. The fraction of unbound compound was calculated by determining the concentration of the filtered sample and the concentration of unfiltered sample. All samples were performed in triplicate with sulfamethoxazole as a […]

[4] = system: C. neoformans ATCC 208821; experiment: microbe, parasite or virus in culture; assay type: cell-based, Cryptococcus neoformans
Protocol: as §1, §2, §3
as §4, with “256 […]” for “256”
µg/mL to 0.12 µg/mL and compounds from 128 µg/mL to 0.06 µg/mL with final volumes of 50 µL per well, plated in duplicate. Then, 50 µL of the fungi suspension that was previously prepared in YNB broth to the final concentration of 2.5×10^3 CFU/mL, was added to each well of the compoundPcontaining plates, giving a final standard compound concentration range of 128 µg/mL to 0.06 µg/mL and tested compound from 64 µg/mL to 0.03 µg/mL. Plates were covered and incubated at 35 °C for 24 h. Candida albicans MICs were determined by measuring the absorbance at OD530. For Cryptococcus neoformans 10 µL of 0.06 % resazurin were added to the 24 h incubated plates. Then, these plates were incubated for another 3 h.
Cryptococcus neoformans MICs were determined by measuring the absorbance at OD570P600. […]

[5] = system: A. baumannii ATCC 19606; assay type: cell-based, Acinetobacter baumannii; settings: ATCC 19606
Protocol: as §1, §2, §3, §4

[6] = system: P. aeruginosa ATCC 27853; assay type: cell-based, Pseudomonas aeruginosa; settings: ATCC 27853
Protocol: as §1, §2, §3, §4

SMILES	MIC [1]	hemolysis [2]	fraction unbound [3]	MIC ([4]; ATCC 208821)	MIC [5]	MIC [6]	MIC ([4]; C. neoformans ATCC 208821, n = 4)
CC(C)[C@@H]1NC(=O)CNC(=O)[C@H](CC(N)=O)NC(=O)[C@H](CCCNC(=N)N)NC(=O)[C@H](Cc2ccc(O)cc2)NC(=O)[C@H](C(C)C)NC(=O)[C@@H]2CSSC[C@H](NC(=O)[C@H](C(C)C)NC(=O)[C@H](CCCNC(=N)N)NC1=O)C(=O)N[C@@H](Cc1ccc(O)cc1)C(=O)N[C@@H](CCCNC(=N)N)C(=O)N[C@@H](CCCNC(=N)N)C(=O)N[C@H](C(=O)N[C@@H](CC(N)=O)C(=O)O)CSSC[C@H](NC(=O)[C@H](Cc1ccccc1)NC(=O)CN)C(=O)N[C@@H](Cc1c[nH]c3ccccc13)C(=O)N[C@@H](Cc1ccc(O)cc1)C(=O)N[C@@H](C(C)C)C(=O)N2 [arenicin-3] (HELM PEPTIDE1{G.F.C.W.Y.V.C.V.Y.R.N.G.V.R.V.C.Y.R.R.C.N}$PEPTIDE1,PEPTIDE1,3:R3-20:R3|PEPTIDE1,PEPTIDE1,7:R3-16:R3$$$V2.0)	8 µg/mL (≈ 3.06 µM)	4%	0.32	8 µg/mL (≈ 3.06 µM)	0.5 µg/mL (≈ 0.191 µM)	1 µg/mL (≈ 0.383 µM)	–
CC(C)[C@@H]1NC(=O)[C@H](CCCNC(=N)N)NC(=O)[C@H](Cc2ccccc2)NC(=O)[C@@H](NC(=O)[C@H](Cc2c[nH]c3ccccc23)NC(=O)[C@H](CCCNC(=N)N)NC(=O)[C@@H](N)CCCNC(=N)N)CSSC[C@@H](C(=O)N[C@@H](CCCNC(=N)N)C(N)=O)NC(=O)[C@H](CCCCN)NC(=O)[C@H](CCCNC(=N)N)NC(=O)[C@H](Cc2ccc(O)cc2)NC(=O)[C@@H]2CSSC[C@H](NC1=O)C(=O)N[C@@H](Cc1ccc(O)cc1)C(=O)N[C@@H](CCCNC(=N)N)C(=O)NCC(=O)N[C@@H](Cc1ccccc1)C(=O)N2 [polyphemusin-1] (HELM PEPTIDE1{R.R.W.C.F.R.V.C.Y.R.G.F.C.Y.R.K.C.R.[am]}$PEPTIDE1,PEPTIDE1,4:R3-17:R3|PEPTIDE1,PEPTIDE1,8:R3-13:R3$$$V2.0)	0.25 µg/mL (≈ 0.102 µM)	~30%	0.37	0.06 µg/mL (≈ 0.0244 µM)	0.06 µg/mL (≈ 0.0244 µM)	2 µg/mL (≈ 0.815 µM)	–
[H][C@]12CSSC[C@]([H])(NC(=O)[C@]([H])([C@@H](C)CC)NC(=O)CNC(=O)[C@H](CCCNC(=N)N)NC(=O)[C@H](Cc3ccc(O)cc3)NC1=O)C(=O)N[C@@H](Cc1ccc(O)cc1)C(=O)N[C@@H](CCCNC(=N)N)C(=O)N[C@@H](CCCNC(=N)N)C(=O)N[C@H](C(=O)N[C@@H](CCCNC(=N)N)C(N)=O)CSSC[C@H](NC(=O)[C@H](Cc1c[nH]c3ccccc13)NC(=O)[C@@H](N)CCCCN)C(=O)N[C@@H](Cc1ccccc1)C(=O)N[C@@H](CCCNC(=N)N)C(=O)N[C@@H](C(C)C)C(=O)N2 [tachyplesin-1] (HELM PEPTIDE1{K.W.C.F.R.V.C.Y.R.G.I.C.Y.R.R.C.R.[am]}$PEPTIDE1,PEPTIDE1,3:R3-16:R3|PEPTIDE1,PEPTIDE1,7:R3-12:R3$$$V2.0)	0.125 µg/mL (≈ 0.0552 µM)	~30%	0.24	0.125 µg/mL (≈ 0.0552 µM)	0.125 µg/mL (≈ 0.0552 µM)	0.25 µg/mL (≈ 0.11 µM)	–
CC[C@H](C)[C@H](NC(=O)[C@@H](NC(=O)[C@@H]1CCCN1C(=O)[C@@H](NC(=O)[C@@H]1CCCN1C(=O)[C@H](CCCCN)NC(=O)[C@H](CCCCN)NC(=O)[C@H](CO)NC(=O)CN)C(C)C)[C@@H](C)CC)C(=O)N[C@@H](Cc1ccc(O)cc1)C(=O)N[C@H]1CSSC[C@@H](C(=O)N[C@@H](CCC(N)=O)C(=O)N[C@@H](CCCNC(=N)N)C(=O)N[C@@H](CCSC)C(N)=O)NC(=O)[C@H](CCCCN)NC(=O)CNC(=O)[C@H]([C@@H](C)O)NC(=O)[C@H](CCCNC(=N)N)NC(=O)[C@H](CCCNC(=N)N)NC(=O)[C@H](CC(N)=O)NC1=O [thanatin]	128 µg/mL (≈ 52.6 µM)	1.3 ± 0.4%	0.08	–	>256 µg/mL	256 µg/mL (≈ 105 µM)	64 µg/mL (≈ 26.3 µM)
